Here are results for seven compounds from patent EP0942911B1, “BENZOPYRANOPYRROLE AND BENZOPYRANOPYRIDINE ALPHA-1 ADRENERGIC COMPOUNDS” (Abbott Laboratories, priority 1996, dated 1998).

Structures are written as SMILES. Structures can show the parent of a compound that is named as a salt.

What all share (experiment): biochemical
Test [1] concerns the target T1, α-1A adrenoreceptor (rat submaxillary gland) (Rattus norvegicus, UniProt P43140).
T1 sequence (P43140 1-466): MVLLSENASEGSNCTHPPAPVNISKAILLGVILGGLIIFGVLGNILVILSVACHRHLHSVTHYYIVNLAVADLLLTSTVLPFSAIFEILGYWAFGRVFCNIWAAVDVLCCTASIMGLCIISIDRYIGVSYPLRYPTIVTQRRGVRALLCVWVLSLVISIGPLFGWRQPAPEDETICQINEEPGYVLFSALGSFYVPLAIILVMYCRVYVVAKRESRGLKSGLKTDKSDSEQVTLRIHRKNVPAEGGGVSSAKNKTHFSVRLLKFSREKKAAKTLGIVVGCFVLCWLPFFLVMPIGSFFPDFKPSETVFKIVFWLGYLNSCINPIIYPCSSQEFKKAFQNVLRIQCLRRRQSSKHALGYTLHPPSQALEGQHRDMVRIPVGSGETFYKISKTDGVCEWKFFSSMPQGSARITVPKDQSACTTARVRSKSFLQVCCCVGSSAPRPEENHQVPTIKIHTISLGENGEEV
Type of test: binding. The following applies: [3H]-prazosin radioligand; rat submaxillary gland membranes; read-out: Radioligand Binding (Ki, nM) 1A (Rat). Here is the method:
Additionally, binding affinity against the pharrnacologically defined α-1A adrenoreceptor (rat submaxillary gland) was measured.
(§1) On the fifth day of culture, growth medium was removed from cells grown in roller bottles, and the cells were washed twice with PBS (Sigma, 120 mM NaCl, 2.7 mM KCl, 10 mM Na2HPO4-NaH2PO4, pH = 7.4). Cells were detached from the roller bottles by incubating for 15 minutes at 37 °C in a Tris-EDTA solution (10 mM Tris, 100 mM NaCl, 1 mM EDTA, pH = 7.4). The cell suspension from each roller bottle was decanted into tared centrifuge tubes and kept on ice. An aliquot of each cell suspension was generally taken for cell counting. Cells were centrifuged at 3000 X G for 5 min at 2-4 °C, washed with PBS and recentrifuged. The supernatant was decanted and the pellet weighed to determine the wet weight of cells. Cells were washed a final time in 40 vol 5 mM Tris-HCl, 5 mM EDTA, pH = 7.7, and centrifuged at 40,000 X G for 10 minutes. Cells were homogenized in 10 mL of 50 mM Tris-HCl, 5 mM EDTA (pH = 7.4) and diluted to 40 mL/tube. Homogenates were centrifuged at 40,000 X G for 10 minutes. The supernatant was decanted and the pellets rehomogenized in 50 mM Tris-HCl (pH = 7.4) and centrifuged as before. The supernatant was decanted and the homogenate resuspended in 6.25 volumes (per gram wet weight) of 50 mM Tris-HCl and aliquots of the pooled homogenates frozen in liquid N2 and stored at -70 °C until the time of assay. Rat submaxillary glands were used for α-1A adrenoreceptors and were prepared essentially as described (Michel, A. D., Loury, D. N. and Whiting, R. L., Brit. J. Pharmacol. 98: 83-889 (1989)).
(§2) Receptor binding assays for α-1 adrenoreceptors were performed essentially as described by Greengrass and Bremner (Eur. J. Pharmacol. 55: 323-326 (1979)). […] Radioactivity was determined by standard liquid scintillation techniques. Data were analyzed as previously described (Hancock, A. A., Kyncl, J. J., Martin, Y. C. and DeBernardis, J. F., J. Receptor Res. 8: 23-46 (1988)).

In test [2] the target is T2, α-1a adrenoreceptor (Bos taurus, UniProt P18130).
T2 sequence (P18130 1-466): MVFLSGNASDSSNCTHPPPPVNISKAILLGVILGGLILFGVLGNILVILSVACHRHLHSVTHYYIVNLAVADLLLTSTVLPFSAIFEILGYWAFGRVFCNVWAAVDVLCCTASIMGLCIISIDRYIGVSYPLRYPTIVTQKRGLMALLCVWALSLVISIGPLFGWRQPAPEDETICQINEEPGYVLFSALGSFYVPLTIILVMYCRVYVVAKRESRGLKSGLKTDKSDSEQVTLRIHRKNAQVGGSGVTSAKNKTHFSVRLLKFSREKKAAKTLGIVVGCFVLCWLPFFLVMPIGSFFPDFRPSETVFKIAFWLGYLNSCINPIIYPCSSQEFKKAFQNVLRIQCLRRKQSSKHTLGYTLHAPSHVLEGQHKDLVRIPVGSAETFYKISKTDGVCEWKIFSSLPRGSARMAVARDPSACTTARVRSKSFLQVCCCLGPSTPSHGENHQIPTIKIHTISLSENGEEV
Type of test: binding, bovine. The following applies: [3H]-prazosin radioligand; cloned receptor in LTK cell membranes; read-out: Radioligand Binding (Ki, nM) 1a (Bovine).
Description: (§3) The cDNA clones encoding the α-1 adrenoreceptors (α-1a, α-1b, and α-1d) were obtained from TULCO (Triangle Universities Licensing Consortium, Research Triangle Park, NC) and inserted into the eukaryotic expression vector SnaB30. In this vector, expression of the adrenoreceptor gene is under the transcriptional control of an SV40 early promoter. Positive drug selection is provided by a neomycin-resistance gene. Mouse fibroblast cells (LTK) were transfected with the α1 expression plasmids and grown in Dulbecco's modified Eagle's medium (DMEM) containing 10% fetal calf serum and 30 µM G418. Stable G418-resistant parental lines were generated, with successful expression of adrenoreceptor protein monitored using radioligand binding techniques. Stable single cell clones derived from the parental lines were screened in adrenoreceptor binding assays to identify clones having high adrenoreceptor density. Roller bottle cultures of the cloned lines were used to provide cell membranes for subsequent adrenoreceptor binding characterization studies. A cell line containing the SnaB30 vector expressing the human erythropoietin gene served as a negative control.
(§4) For adrenoreceptor binding assays, large scale membrane preparations were utilized in which 6 million cells were seeded into small (450 cm^2) Corning tissue culture roller bottles. 200 mL of DMEM containing 10% fetal calf serum and 300 µM G418 were added to each roller bottle. A 95% air / 5% CO2 gas mixture (sterile) was injected into each roller bottle prior to sealing. The bottles were then incubated at 37 °C on a roller rack for 5 days. Cells were re-fed with fresh medium after 3 days in culture.
as §1, §2

Test [3] has as its target T3, α-1d adrenoreceptor (Rattus norvegicus, UniProt P23944).
T3 sequence (P23944 1-561): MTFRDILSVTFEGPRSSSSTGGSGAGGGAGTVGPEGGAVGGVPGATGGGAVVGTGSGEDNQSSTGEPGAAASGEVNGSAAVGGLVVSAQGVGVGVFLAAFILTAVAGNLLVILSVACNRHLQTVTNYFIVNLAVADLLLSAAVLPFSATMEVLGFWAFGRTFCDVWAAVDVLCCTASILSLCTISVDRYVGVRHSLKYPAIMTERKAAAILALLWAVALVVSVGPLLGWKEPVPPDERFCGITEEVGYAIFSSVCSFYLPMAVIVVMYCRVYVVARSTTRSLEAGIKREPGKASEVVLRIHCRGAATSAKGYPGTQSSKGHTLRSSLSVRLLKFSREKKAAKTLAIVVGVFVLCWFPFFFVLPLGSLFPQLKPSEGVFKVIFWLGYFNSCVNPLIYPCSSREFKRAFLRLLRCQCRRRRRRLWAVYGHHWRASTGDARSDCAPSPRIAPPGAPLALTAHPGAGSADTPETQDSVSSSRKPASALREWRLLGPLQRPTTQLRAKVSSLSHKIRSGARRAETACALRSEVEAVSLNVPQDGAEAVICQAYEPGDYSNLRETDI
Type of test: binding. The note with it: [3H]-prazosin radioligand; cloned receptor in LTK cell membranes; read-out: Radioligand Binding (Ki, nM) 1d (Rat).
Description: as §3, §4, §1, §2

Test [4] concerns the target T4, α-1b adrenoreceptor (Mesocricetus auratus, UniProt P18841).
T4 sequence (P18841 1-515): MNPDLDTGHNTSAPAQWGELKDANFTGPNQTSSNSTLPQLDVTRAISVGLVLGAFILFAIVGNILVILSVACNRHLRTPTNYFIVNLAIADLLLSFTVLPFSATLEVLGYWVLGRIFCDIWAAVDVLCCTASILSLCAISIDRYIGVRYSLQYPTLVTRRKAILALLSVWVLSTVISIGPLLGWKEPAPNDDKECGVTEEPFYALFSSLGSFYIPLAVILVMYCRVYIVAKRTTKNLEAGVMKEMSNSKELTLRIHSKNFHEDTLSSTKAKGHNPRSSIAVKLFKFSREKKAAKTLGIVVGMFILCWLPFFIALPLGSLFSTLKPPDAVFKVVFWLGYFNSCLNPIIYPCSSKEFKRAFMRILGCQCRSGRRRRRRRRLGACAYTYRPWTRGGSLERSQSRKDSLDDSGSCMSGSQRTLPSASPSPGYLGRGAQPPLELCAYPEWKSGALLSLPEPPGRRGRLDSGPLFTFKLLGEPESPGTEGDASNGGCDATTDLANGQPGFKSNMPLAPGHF
Format: binding, hamster. The note with it: [3H]-prazosin radioligand; cloned receptor in LTK cell membranes; read-out: Radioligand Binding (Ki, nM) 1b (Hamster).
Description: as §3, §4, §1, §2

In the case of `COc1ccc2sc3c(=O)n(CCCCN4C[C@@H]5COc6cccc(OC)c6[C@H]5C4)c(=O)[nH]c3c2n1` [Example 7, 3-[4-((3aR,9bS)-trans-9-Methoxy-1,2,3,3a,4,9b-hexahydro-[1]-benzopyrano[3,4-c]pyrrol-2-yl)butyl]-8-methoxy-pyrido[2',3':4,5]thieno[3,2-d]pyrimidine-2,4(1H,3H)-dione hydrochloride], the Ki in test [1] worked out at 0.53 nM; in test [2], 0.215 nM; in test [3], 0.438 nM; in test [4] it was 1.61 nM.
In the case of `COc1cccc2c1[C@H]1CN(CCCCn3c(=O)[nH]c4c(sc5c(OC)ccnc54)c3=O)C[C@@H]1CO2` [Example 8, 3-[4-((3aR,9bS)-trans-9-Methoxy-1,2,3,3a,4,9b-hexahydro-[1]-benzopyrano[3,4-c]pyrrol-2-yl)butyl]-6-methoxy-pyrido[2',3':4,5]thieno[3,2-d]pyrimidine-2,4(1H,3H)-dione dihydrochloride], the Ki in test [1] came out at 0.762 nM; in test [2], 0.362 nM; in test [3] it was 1.42 nM; in test [4], 4.19 nM.
As for `COc1cccc2c1[C@H]1CN(CCCCn3c(=O)[nH]c4c(sc5ncc(-c6ccccc6)nc54)c3=O)C[C@@H]1CO2` [Example 9, 3-[4-((3aR,9bS)-trans-9-Methoxy-1,2,3,3a,4,9b-hexahydro-[1]-benzopyrano[3,4-c]pyrrol-2-yl)butyl]-8-phenyl-pyrazino[2',3':4,5]thieno[3,2-d]pyrimidine-2,4(1H,3H)-dione hydrochloride], the Ki amounted to 2.27 nM in test [1], 0.325 nM in test [2], 1.55 nM in test [3] and 17.8 nM in test [4].
As for `COc1cccc2c1[C@H]1CN(CCCCn3c(=O)[nH]c4c(sc5ncc(Cl)nc54)c3=O)C[C@@H]1CO2` [Example 10, 3-[4-((3aR,9bS)-trans-9-Methoxy-1,2,3,3a,4,9b-hexahydro-[1]-benzopyrano[3,4-c]pyrrol-2-yl)butyl]-8-chloro-pyrazino[2',3':4,5]thieno[3,2-d]pyrimidine-2,4(1H,3H)-dione hydrochloride], the Ki is 0.662 nM in test [1], 0.406 nM in test [2], 1.6 nM in test [3] and 10.4 nM in test [4].
Turning to `COCCn1c(=O)n(CCCCN2C[C@@H]3COc4cccc(OC)c4[C@H]3C2)c(=O)c2sc3nccnc3c21` [Example 11, 3-[4-((3aR,9bS)-trans-9-Methoxy-1,2,3,3a,4,9b-hexahydro-[1]-benzopyrano[3,4-c]pyrrol-2-yl)butyl]-1-(2-Methoxyethyl)-pyrazino[2',3':4,5]thieno[3,2-d]pyrimidine-2,4(1H,3H)-dione hydrochloride], the Ki was determined as 0.374 nM in test [1], 0.243 nM in test [2], 1.46 nM in test [3] and 3.78 nM in test [4].
In the case of `COc1cccc2c1[C@H]1CN(CCCCn3c(=O)[nH]c4c(sc5nccnc54)c3=O)C[C@@H]1CO2` [Example 12, 3-[4-((3aR,9bS)-trans-9-Methoxy-1,2,3,3a.4,9b-hexahydro-[1]-benzopyrano[3,4-c]pyrrol-2-yl)butyl]-pyrazino[2',3':4,5]thieno[3,2-d]pyrimidine-2,4(1H,3H)-dione dihydrochloride], the Ki was found to be 0.52 nM in test [1], 0.375 nM in test [2], 2.17 nM in test [3] and 5.25 nM in test [4].
As to `COc1cccc2c1[C@@H]1CN(CCCCn3c(=O)[nH]c4c(sc5nccnc54)c3=O)C[C@H]1CO2` [Example 14, 3-[4-((3aS,9bR)-trans-9-Methoxy-1,2,3,3a,4,9b-hexahydro-[1]-benzopyrano[3,4-c]pyrrol-2-yl)butyl]-pyrazino[2',3':4,5]thieno[3,2-d]pyrimidine-2,4(1H,3H)-dione dihydrochloride], the Ki amounted to 0.105 nM in test [1], 0.038 nM in test [2], 0.145 nM in test [3] and 1.37 nM in test [4].

What is called Ki is a dissociation constant, usually derived from enzyme kinetics or from competition with a known ligand.
